Values quoted from earlier work as cited in patent US20090041869A1, “METHOD OF REDUCING INSECT RESISTANT PESTS IN […]” (PIONEER HI-BRED INTERNATIONAL, INC., priority 2004, published 2009).
Entries after “also recorded” stand apart in the source; their conditions may differ. Like-named read-outs stand apart in the source and are kept apart here.

System: European corn borer, Ostrinia nubilalis
Conditions: Cry 1F selected colony vs unselected colony, likelihood ratio test at α=0.05

Substance: Cry 1Ac: Bt crystal protein toxin assessed for cross resistance
- cross resistance of the Cry 1F selected strain to other Bt toxins: 6.89 fold

Substance: Cry 1Ab: Bt crystal protein toxin assessed for cross resistance
- cross resistance of the Cry 1F selected strain to other Bt toxins: No cross resistance; also recorded: does not lead to loss of susceptibility
- cross resistance of the Cry 1F selected strain to other Bt toxins (listed as Cry1 Ab): no cross resistance
